As a reminder, the IC50 is the concentration that gives 50% inhibition. Low readings indicate greater potency in that assay, high ones weaker potency in that assay.

This is an account of results in patent US20170273985A1, “TRICYCLIC DERIVATIVE” (Sunovion Pharmaceuticals Inc., priority 2014, published 2017).

One experiment addresses PDE1B (Homo sapiens, UniProt Q01064). Nature of the experiment: In vitro HTRF PDE1 inhibition assay (PDE1B). Type of experiment: biochemical. Particulars: Table 22. From the text:
An exemplary procedure for the in vitro Homogenous Time Resolved Fluorescence assay, which can be used to determine the inhibitory action of compounds of the invention toward PDE1 or its isoforms, follows. The HTRF PDE1 assay utilized the HTRF (Homogenous Time Resolved Fluorescence) technology, which is based on the competition between unlabeled cyclic nucleotide and cyclic nucleotide labeled with XL665 for the binding to cyclic nucleotide-specific antibody labeled with cryptate. The HTRF signal is thus inversely proportional to the concentration of cyclic nucleotide being measured. Since phosphodiesterases break down cyclic nucleotides the HTRF signal was used to determine PDE activity. The Cisbio cGMP HTRF assay kit (Cat no: 62GM2PEC) was utilized. Cyclic GMP was diluted to 200 nM in HTRF assay buffer (1 mM CaCl2, 10 mM MgCl2, 10 mM Tris-HCl, 0.1% BSA, pH 7.4). 10 μl of compound or DMSO was diluted in 200 nM cyclic GMP solution and added to wells of a 96 well white plate to give 100 nM cyclic GMP in 1% DMSO final concentration. PDE (1A3, 1B or IC) was diluted to 2× working concentration in HTRF assay buffer with 2 μg/ml calmodulin, and 10 μl was added to initiate the reaction. The plate was then incubated for 45 minutes at 37° C. d2-Labelled cyclic GMP and anti-cGMP cryptate were diluted in 50 mM phosphate buffer, 0.8 M KF, 1% Triton X100, 0.2% BSA, pH 7.0. Following incubation 10 μl d2-cGMP, then 10 μl anti cGMP cryptate were added to each well and the plate was incubated for 45 minutes at room temperature. The plate was then read on Perkin Elmer Victor at 2 different FRET readings ex/emm 340 nm/665 nm and 340 nm/615 nm. Compounds having an IC50 of <1 μM, are denoted as +++. Compounds having an IC50 of 1−10 μM, are denoted as ++. Compounds having an IC50 of 10-100 μM, are denoted as +.
For orientation: In TR-FRET formats the signal depends on donor and acceptor labels being close together.
`O=c1c2cnc(C3CCOCC3)n2nc2n1CC(c1ccc(Cl)cc1)C2` (centres unmarked) [Example 138, 7-(4-Chlorophenyl)-3-(tetrahydro-2H-pyran-4-yl)-7,8-dihydro-6H,10H-imidazo[5,1-f]pyrrolo[2,1-c][1,2,4]triazin-10-one] returned an IC50 of 1000 to 10000 nM.

Still in this experiment, the particulars now being: Table 25.
`COCCN1CCn2c1nn1c(C(C)C)ncc1c2=O` [Example 139] came in with an IC50 of less than 1000 nM. On the same count and under the same terms, the same measure for `CC(C)c1ncc2c(=O)n3c(nn12)N(CCc1cccnc1)CC3` [Example 140]: less than 1000 nM.

`CC(C)c1ncc2c(=O)n3c(nn12)N(Cc1ccc(Cl)cn1)CC3` [Example 141] yielded an IC50 of less than 1000 nM.

For the compound `O=c1c2cnc(C3CCC3)n2nc2n1CCN2CCCc1ccccn1` [Example 142], the IC50 is less than 1000 nM. On the same count and under the same terms, the same measure for `O=c1c2cnc(C3CCC3)n2nc2n1CCN2CC1CCOCC1` [Example 143]: less than 1000 nM. On the same count and under the same terms, next, `O=c1c2cnc(C3CCC3)n2nc2n1CCN2Cc1ccc(Cl)cn1` [Example 144]: less than 1000 nM; `COC(C)c1ncc2c(=O)n3c(nn12)N(CCC(C)(C)C)CC3` (centres unmarked) [Example 145]: less than 1000 nM; `O=c1c2cnc(C3CCOCC3)n2nc2n1CCN2CCOC(F)(F)F` [Example 146]: less than 1000 nM.

Turning to `O=c1c2cnc(C3CCOCC3)n2nc2n1CCN2CCc1cccc(F)c1` [Example 147], the IC50 was less than 1000 nM. Still for that read-out and setting: next, `O=c1c2cnc(C3CCOCC3)n2nc2n1CCN2CCC1CC1` [Example 149]: less than 1000 nM; `COc1ccccc1CN1CCn2c1nn1c(C3CCOCC3)ncc1c2=O` [Example 150]: less than 1000 nM; `O=c1c2cnc(C3CCOCC3)n2nc2n1CCN2CC1CCC1` [Example 151]: less than 1000 nM. Same read-out and setting: the same measure for `O=c1c2cnc(C3CCOCC3)n2nc2n1CCN2CC1CCCC1` [Example 152]: less than 1000 nM; for `COc1ccc(CN2CCn3c2nn2c(C4CCOCC4)ncc2c3=O)cc1` [Example 157]: less than 1000 nM. The same measure, in the same setting: the same measure for `COc1cccc(CN2CCn3c2nn2c(C4CCOCC4)ncc2c3=O)c1` [Example 158]: less than 1000 nM; for `O=c1c2cnc(C3CCOCC3)n2nc2n1CCN2Cc1ccc(-c2ccccn2)cc1` [Example 161]: less than 1000 nM; for `CC(C)CN1CCn2c1nn1c(C3CCOCC3)ncc1c2=O` [Example 174]: less than 1000 nM. On to `CC(C)(C)CN1CCn2c1nn1c(C3CCOCC3)ncc1c2=O` [Example 175], for which the IC50 was less than 1000 nM. Same read-out and setting: the same measure for `CC(C)c1ncc2c(=O)n3c(nn12)N(Cc1ccc(Cl)cn1)CCC3` [Example 177]: less than 1000 nM. Take `O=c1c2cnc(C3CCC3)n2nc2n1CCCN2CC1CCOCC1` [Example 178]: the half-maximal inhibitory concentration (IC50) is less than 1000 nM. `O=c1c2cnc(C3CCC3)n2nc2n1CCCN2Cc1ccc(Cl)cn1` [Example 179] showed an IC50 of less than 1000 nM. The same measure, in the same setting: next, `COC(C)c1ncc2c(=O)n3c(nn12)N(CCC(C)(C)C)CCC3` (centres unmarked) [Example 180]: less than 1000 nM.

In turn, `COC(C)c1ncc2c(=O)n3c(nn12)N(CCCC(F)(F)F)CCC3` (centres unmarked) [Example 181] registered an IC50 of 1000 to 10000 nM. For `O=c1c2cnc(C3CCOCC3)n2nc2n1CCCN2CCCC(F)(F)F` [Example 182], the IC50 is less than 1000 nM. `CC(C)CN1CCCn2c1nn1c(C3CCOCC3)ncc1c2=O` [Example 183]: the IC50 was less than 1000 nM. On the same count and under the same terms, the same measure for `CC(C)(C)CN1CCCn2c1nn1c(C3CCOCC3)ncc1c2=O` [Example 184]: less than 1000 nM; for `CC(C)CCN1CCCn2c1nn1c(C3CCOCC3)ncc1c2=O` [Example 185]: less than 1000 nM.

As to `CC(C)(C)CCN1CCCn2c1nn1c(C3CCOCC3)ncc1c2=O` [Example 186], the IC50 was less than 1000 nM. For the compound `O=c1c2cnc(C3CCOCC3)n2nc2n1CCCN2C[C@H]1CC[C@H](C(F)(F)F)CC1` [Example 192], the IC50 was less than 1000 nM. On the same count and under the same terms, the same measure for `CO[C@H]1CC[C@@H](CN2CCCn3c2nn2c(C4CCOCC4)ncc2c3=O)CC1` [Example 194]: less than 1000 nM.

`O=c1c2cnc(C3CCOCC3)n2nc2n1CCCN2C[C@H]1CC[C@@H](C(F)(F)F)CC1` [Example 195]: the IC50 is less than 1000 nM.

For the compound `CCO[C@H]1CC[C@@H](CN2CCCn3c2nn2c(C4CCOCC4)ncc2c3=O)CC1` [Example 196], the IC50 was less than 1000 nM. On the same count and under the same terms, next, `O=c1c2cnc(C3CCOCC3)n2nc2n1CCCN2CC1CC1(F)F` (centres unmarked) [Example 197]: less than 1000 nM; `CC1CN(CCCC(F)(F)F)c2nn3c(C4CCOCC4)ncc3c(=O)n2C1` (centres unmarked) [Example 198]: less than 1000 nM; `CC(C)c1ncc2c(=O)n3c(nn12)N(CC1CCOCC1)CC(C)(C)C3` [Example 199]: less than 1000 nM. Compound `CC(C)c1ncc2c(=O)n3c(nn12)N(CC1CCOCC1)CC(F)(F)C3` [Example 201] yielded an IC50 of less than 1000 nM.

`CC(C)CN1CC(F)(F)Cn2c1nn1c(C3CCOCC3)ncc1c2=O` [Example 202] registered an IC50 of less than 1000 nM.

Turning to `CC(C)CCN1CC(F)(F)Cn2c1nn1c(C3CCOCC3)ncc1c2=O` [Example 203], the IC50 was less than 1000 nM. Compound `CC(C)n1ncc2c(=O)n3c(nc21)N(Cc1ccc(C2CCOCC2)cc1)CC3` [Example 204] yielded an IC50 of less than 1000 nM. As for `CC(C)n1ncc2c(=O)n3c(nc21)N(Cc1ccc(-c2ccc(F)cn2)cc1)CC3` [Example 205], the IC50 is less than 1000 nM.

Compound `CC(C)n1ncc2c(=O)n3c(nc21)N(CC1CCC(F)(F)CC1)CC3` [Example 206] showed an IC50 of less than 1000 nM. On the same count and under the same terms, next, `O=c1c2cnn(C3CCOCC3)c2nc2n1CCN2Cc1ccc(-c2ccccn2)cc1` [Example 207]: less than 1000 nM; `O=c1c2cnn(C3CCOCC3)c2nc2n1CCN2Cc1ccc(-c2ccc(F)cn2)cc1` [Example 208]: less than 1000 nM. The same measure, in the same setting: the same measure for `O=c1c2cnn(C3CCOCC3)c2nc2n1CCN2Cc1ccc(C(F)(F)F)cc1` [Example 209]: less than 1000 nM; for `O=c1c2cnn(C3CCOCC3)c2nc2n1CCN2CC1CCC(F)(F)CC1` [Example 210]: less than 1000 nM. Still for that read-out and setting: the same measure for `CC(C)(C)CCN1CCn2c1nc1c(cnn1C1CCOCC1)c2=O` [Example 211]: less than 1000 nM. The compound `O=c1c2cnn(C3CCOCC3)c2nc2n1CCN2CCCC(F)(F)F` [Example 212] came in with an IC50 of less than 1000 nM. Still for that read-out and setting: next, `CC(C)CCN1CCn2c1nc1c(cnn1C1CCOCC1)c2=O` [Example 213]: less than 1000 nM. The same measure, in the same setting: the same measure for `CC(C)n1ncc2c(=O)n3c(nc21)N(Cc1ccc(Cl)cn1)CCC3` [Example 214]: less than 1000 nM; for `CC(C)n1ncc2c(=O)n3c(nc21)N(Cc1ccc(-c2ccccn2)cc1)CCC3` [Example 215]: less than 1000 nM. Still for that read-out and setting: the same measure for `CC(C)n1ncc2c(=O)n3c(nc21)N(Cc1ccc(C2CCOCC2)cc1)CCC3` [Example 216]: less than 1000 nM. `O=c1c2cnn(C3CCOCC3)c2nc2n1CCCN2Cc1ccc(Cl)cn1` [Example 217] yielded an IC50 of less than 1000 nM. Still for that read-out and setting: the same measure for `O=c1c2cnn(C3CCOCC3)c2nc2n1CCCN2Cc1ccc(C(F)(F)F)cc1` [Example 218]: less than 1000 nM; for `O=c1c2cnn(C3CCOCC3)c2nc2n1CCCN2Cc1ccc(F)cc1` [Example 219]: less than 1000 nM. In turn, `O=c1c2cnn(C3CCOCC3)c2nc2n1CCCN2Cc1ccc(-c2ccccn2)cc1` [Example 220] showed an IC50 of less than 1000 nM. Still for that read-out and setting: next, `O=c1c2cnn(C3CCOCC3)c2nc2n1CCCN2Cc1ccc(-c2ccc(F)cn2)cc1` [Example 221]: less than 1000 nM. Turning to `O=c1c2cnn(C3CCOCC3)c2nc2n1CCCN2CCCC(F)(F)F` [Example 222], the IC50 is less than 1000 nM. On the same count and under the same terms, the same measure for `O=c1c2cnn(C3CCOCC3)c2nc2n1CCCN2CC1CCC(F)(F)CC1` [Example 223]: less than 1000 nM; for `CC(C)CCN1CCCn2c1nc1c(cnn1C1CCOCC1)c2=O` [Example 224]: less than 1000 nM.

`O=c1c2cnn(C3CCOCC3)c2nc2n1CCCN2CCCCC(F)(F)F` [Example 225] showed an IC50 of less than 1000 nM. On the same count and under the same terms, next, `CC(C)CN1CCCn2c1nc1c(cnn1C1CCOCC1)c2=O` [Example 226]: less than 1000 nM; `O=c1c2cnn(C3CCOCC3)c2nc2n1CCCN2CC1CC1(F)F` (centres unmarked) [Example 227]: less than 1000 nM; `CC(C)(C)CN1CCCn2c1nc1c(cnn1C1CCOCC1)c2=O` [Example 228]: less than 1000 nM. The same measure, in the same setting: next, `CC(C)(C)CCN1CCCn2c1nc1c(cnn1C1CCOCC1)c2=O` [Example 229]: less than 1000 nM; `CO[C@@H](C)c1ncc2c(=O)n3c(nn12)N(CCCC(F)(F)F)CC3` [Example 230]: less than 1000 nM. `CO[C@H](C)c1ncc2c(=O)n3c(nn12)N(CCCC(F)(F)F)CC3` [Example 231] had an IC50 of 1000 to 10000 nM. Still for that read-out and setting: the same measure for `Cc1nc(C2CCOCC2)n2nc3n(c(=O)c12)CCN3CCC(C)C` [Example 234, 6-Methyl-1-(3-methylbutyl)-8-(tetrahydro-2H-pyran-4-yl)-2,3-dihydro-1H,5H-diimidazo[2,1-c:5′,1′-f][1,2,4]triazin-5-one]: 1000 to 10000 nM.
